The values that follow come from patent US11795197B2, “Peptide compositions for immuno-oncology molecular imaging and targeted drug delivery” (Cedars-Sinai Medical Center, priority 2017, dated 2023).

Residues, ends and D or L forms follow the SMILES beside them. No end group written: not given here. K(CB-TE2A) = lysine carrying the CB-TE2A chelator (for 64Cu); Cy7 = near-infrared fluorescent dye for NIRF imaging; PEGn = polyethylene glycol (n units) spacer

Data set [1] concerns BT474 cells. Kind of data set: Cellular toxicity of LDLLDL peptide by microscopy. Type of data set: cell-based, human. Conditions: 0.1-1000 μM/mL, up to highest concentration tested. The text has this:
(§1) A FPR-targeted peptide and its optical imaging probe were designed and synthesized: The inventors synthesized an FPR-targeted peptide agent Leu-Asp-Leu-Leu-Asp-Leu (LDLLDL: SEQ ID NO:1), which is an antagonist peptide for FPR1 receptor. The inventors have also developed an NIR optical imaging probe to evaluate the targeting capability. Specifically, the base peptide ligand was synthesized by the solid-phase method. After the peptide sequence was assembled on resin, the ivDDE protecting group was removed from the w-amino group of the lysine by treatment with hydrazine. The inventors tested varying concentrations (0.1-1000 μM/mL) of LDLLDL (SEQ ID NO:1) peptide in all four breast cancer cell types (BT474, BT549, MDA-MB-231 and MCF-7) to assess cellular toxicity.

Data set [2] has as its system MCF-7 cells. The data set is described as follows: Cellular toxicity of LDLLDL peptide by microscopy. It is filed as cell-based, human. Conditions: 0.1-1000 μM/mL, up to highest concentration tested.
Text: as §1

The subject of another data set is BT549 cells. Kind of data set: Cellular toxicity of LDLLDL peptide by microscopy. Type of data set: cell-based, human. Conditions: 0.1-1000 μM/mL, up to highest concentration tested.
Text: as §1

Data set [3] concerns MDA-MB-231 cells. The data set is described as follows: Cellular toxicity of LDLLDL peptide by microscopy. The conditions noted are these: 0.1-1000 μM/mL, up to highest concentration tested. It is filed as cell-based, human.
Text: as §1

The nature of data set [4]: Solubility of the peptide. Type of data set: physicochemical.
The subject of data set [5] is normal human mammary epithelial cell (HEMC). Kind of data set: Cellular uptake of FPR peptide by near infrared fluorescence imaging. It is filed as cell-based. The procedure: (§2) To study the ability of the FPR peptide to internalize and fluorescently labeled cancer and macrophage cells, various breast cancer cell lines were treated with the peptide (5 uMol/uL) for 4 hrs. […] Fluorescence uptake was not observed in the normal human mammary epithelial cells (HEMC-control), as expected, since there is no expression of FPR receptor for HEMC.
(§3) LDLLDL-Cy7 ([SEQ ID NO:1]-Cy7) was used to treat five cancer cell lineages (MDA-MB-231, BT549, HCC1500, BT474, and MCF-7) and normal human mammary epithelial cell (HEMC) for 3 hrs at the concentrations of 5 and 10 μM/mL. After washing 3 times with cold PBS, all cells were imaged using near infrared fluorescence imaging and target specificity of the FPR peptide was evaluated.

In another data set the test system is human TNBC cells. Kind of data set: Target specificity of the FPR peptide by near infrared fluorescence imaging. Type of data set: cell-based. Conditions: 3 hrs, 5 and 10 μM/mL. The procedure:
as §3

In data set [6] the test system is macrophage cell line RAW264.7. The data set is described as follows: Cellular uptake of FPR peptide by near infrared fluorescence imaging. It is filed as cell-based. The conditions noted are these: peptide 5 uMol/uL, 4 hrs. The procedure:
as §2

Data set [7] deals with 4T1 breast cancer tumor xenograph. The data set is described as follows: In vivo fluorescence imaging in tumor xenograph mice. Also noted: species or system Balb/c mice. The conditions noted are these: 30 ul of peptide (2 nMoles), within 6 hr, mammary gland tumors. The procedure:
FIG. 10 depicts one of 10 mice experiments in accordance with various embodiments. Ten mice (Balb/c mice) were implanted with breast cancer cells (4T1) to develop breast cancer tumor xenograph model. The tumors were allowed to grow for 4 weeks before the mice were injected with 30 ul of peptide (2 nMoles). The animals were imaged using mouse fluorescence imaging after 1, 2, 3, 4, 6 hr.

The next data set relates to HCC1500 cells. The data set is described as follows: Cellular uptake of FPR peptide by near infrared fluorescence imaging. Type of data set: cell-based, human. The procedure: as §2, §3
In data set [8] the test system is BT474 cells. The description is as above. It is filed as cell-based, human. The procedure:
as §2, §3

Data set [9] concerns MCF-7 cells. The data set is described as above. It is filed as cell-based, human. The conditions noted are these: 3 hrs, 5 and 10 μM/mL, FIG. 4. The procedure:
as §2, §3

In data set [10] the test system is MDA-MB-231 cells. Described as above. Type of data set: cell-based, human. The conditions noted are these: 3 hrs, 5 and 10 μM/mL, FIG. 4. The procedure: as §2, §3
Data set [11] has as its system E0771 breast cancer tumor xenograph. Kind of data set: In vivo fluorescence imaging in tumor xenograph mice. Further details: species or system C57BL/6 mice. The conditions noted are these: 30 ul of peptide (2 nMoles), within 6 hr, rear bilateral flank tumors. The procedure:
FIG. 9 depicts one of 10 mice experiments in accordance with various embodiments. Ten mice (C57BL/6 mice) were implanted with breast cancer cells (E0771) to develop breast cancer tumor xenograph model. The tumors were allowed to grow for 4 weeks before the mice were injected with 30 ul of peptide (2 nMoles). The animals were imaged using mouse fluorescence imaging after 1, 2, 3, 4, 6 hr.

Data set [12] relates to MDA-MB-231 breast cancer tumor xenograph. Kind of data set: In vivo fluorescence imaging and organ biodistribution in tumor xenograph mice. The procedure:
FIG. 5 depicts in accordance with various embodiments of the invention, in vivo fluorescent image of xenograft mice after 6 hours of tail vein injection. Mice were injected with fluorescent dye (Cy7) only (left panel), and peptide-Cy7 (right panel).
FIG. 6 depicts in accordance with various embodiments of the invention, the biodistribution in tumor-bearing mice after 7 hours of tail vein injection. Mice were injected with fluorescent dye only (left panel), and peptide LDLLDL-Cy7 (right panel)([SEQ ID NO:1]-Cy7).
Ten mice were implanted with breast cancer cells (MDA-MB-231) to develop breast cancer tumor xenograph models. The tumors were allowed to grow for 4 weeks before the mice were injected with 30 ul of peptide (2 nMoles). The animals were imaged using mouse fluorescence imaging after 1, 2, 3, 4, and 6 hours. FIG. 5 show the results of one of those mice experiments. […] After 7 hours the animals were sacrificed and organs extracted and imaged.

Data set [13] concerns ANXA1-knockdown breast cancer xenograft. The data set is described as follows: PET uptake in ANXA1-knockdown xenograft model. Type of data set: in vivo, mice. The text has this:
Without being bound to any particular theory, the inventors believe that ANXA1 is associated with tumorigenesis and progression, and the synthesized peptide imaging probe can be used as a surrogate for monitoring the tumor expression with ANXAL. To characterize target specificity, the inventors developed the breast cancer xenograft model with ANXA1 overexpression as well as an ANXA1-knockdown model using a shRNA lentiviral vector technique. […] The inventors assess the pharmacokinetic profile and tumor specific targeting potency of the new imaging probe, and its effectiveness in evaluation of tumorigenesis and progression of aggressive breast cancer. See FIG. 8 for experimental design. […]
Evaluation of tumor uptake in ANXA1 knockdown xenograft model: The inventors evaluate the effects of ANXA1 in regulating tumorigenesis and progression using the ANXA1-KD/control breast cancer xenograft model. […] Tumor growth and/or progression of the disease is monitored up to 8 weeks after cell inoculation. […] On completion of PET/CT at 24 h after injection, a tissue radioactivity assay is performed, and tissue radioactivity is calculated and expressed as decay-corrected percentage injected dose per gram of tissue (% ID/g). The tumor radioactivity and size are compared between ANXA1-KD tumor and ANXA1-SCR tumor. […]

Data set [14] deals with xenograft breast cancer model with ANXA1 overexpression. The data set is described as follows: PET uptake in breast cancer xenograft model with ANXA1 overexpression. It is filed as in vivo, mice. From the text:
Without being bound to any particular theory, the inventors believe that ANXA1 is associated with tumorigenesis and progression, and the synthesized peptide imaging probe can be used as a surrogate for monitoring the tumor expression with ANXAL. To characterize target specificity, the inventors developed the breast cancer xenograft model with ANXA1 overexpression as well as an ANXA1-knockdown model using a shRNA lentiviral vector technique. […] The inventors assess the pharmacokinetic profile and tumor specific targeting potency of the new imaging probe, and its effectiveness in evaluation of tumorigenesis and progression of aggressive breast cancer. See FIG. 8 for experimental design.
Breast cancer xenograft model: In vitro studies described above identified the expression of ANXA1/FPR1 for all tested cells. […] Body weight and tumor volume is measured weekly. […]
Blood clearance and biodistribution: i) Blood clearance: After anesthesia (isoflurane 2-3%), 2 groups of 5 mice each are injected with radiolabeled LDLLDL-^64Cu ([SEQ ID NO:1]-^64Cu) (˜5 μCi) via tail vein. Retro-orbital blood samples (25 μL) are collected at various time points such as 5, 15, 30, 60, 120, 240 min and 24 h after injection and radioactivity of all samples are counted in a gamma counter (Perkin-Elmer). […] At 1 h, 2 h, 4 h, 24 h after injection, mice are scanned by small-animal PET followed by tissue radioactivity assay. […]

For another data set, the system named is tumor-expressing ANXA1. The data set is described as follows: In vitro target binding specificity in breast cancer cell models. Type of data set: cell-based. The conditions noted are these: human breast cancer cell models. The procedure: In vitro target specificity binding is evaluated in two steps: Step 1: Characterize the ANXA1/FPR1 expression baseline by examining expression levels of FPR1 and ANXA1 in five human breast cancer cell lines, MDA-MB-231, HCC1500, BT549, MCF-7, BT474, and HEMC. Obtaining protein expression by performing IHC staining using the anti-ANXA1 and anti-FPR1 antibody. The cell lines with positive staining are identified. Further, the […] of ANXA1 and FPR1 are evaluated by western blotting and qRT-PCR. The correlation between FPR1 and ANXA1 are validated, and the cells with highest FPR1 and ANXA1 expression are selected for further in vivo study. The results establish the baseline of expression of ANXA1 and FPR1 in the tested breast cancer cell lines.
Step 2: Characterization of the binding specificity of the LDLLDL-^64Cu ([SEQ ID NO:1]-^64Cu) is tested on the cell lines described above. The cells are cultured in two groups of Petri dishes. […] The suspended cells are measured for radioactivity using a gamma-counter. Disintegrations per minute per cell are calculated and reported as the peptide uptake for each cell line. […] The cell-associated radioactivity is measured, and the binding affinity is determined by the Grafit software (Erithacus, Inc). […]

[15] abbreviates: organs extracted after 7 hours, FIG. 6.

As to `CC(C)C[C@H](NC(=O)[C@H](CC(=O)O)NC(=O)[C@H](CC(C)C)NC(=O)[C@H](CC(C)C)NC(=O)[C@H](CC(=O)O)NC(=O)[C@@H](N)CC(C)C)C(=O)O` [LDLLDL, Leu-Asp-Leu-Leu-Asp-Leu] (H-LDLLDL-OH; N-terminus and C-terminus assumed), the “cellular toxicity (cell death by microscopy)” value in the data set on BT474 cells [1], with MCF-7 cells [2], with BT549 cells and in the data set on MDA-MB-231 cells [3] was “Apparent cell death could not be observed” each time. The solubility result in [4] is given as “superior”.
Turning to LDLLDL-Cy7, the “fluorescence uptake of LDLLDL-Cy7” value in [5] (3 hrs, 5 and 10 μM/mL, FIG. 4) was “no fluorescence uptake”. In addition, the fluorescence uptake result in [5] (peptide 5 uMol/uL, 4 hrs, control without FPR expression) was “not observed”. For the same compound, the binding affinity result with human TNBC cells was “High binding affinity”. The “uptake of the peptide” value in data set [6] is “substantial uptake”. Moreover, the “fluorescence in the implanted tumors” value in [7] was “intense fluorescence”; in [11], “intense fluorescence”; in data set [12] (tail vein injection, 6 hours after injection, FIG. 5) it was “intense fluorescence”. Further, the “uptake of LDLLDL-Cy7” value in the data set with HCC1500 cells (3 hrs, 5 and 10 μM/mL, FIG. 4) is reported as “substantial uptake”; in the data set with BT474 cells [8] (3 hrs, 5 and 10 μM/mL, FIG. 4), “weak uptake”; in the data set with MCF-7 cells [9] it was “weak uptake”; with MDA-MB-231 cells [10] it was “substantial uptake”. The cell associated fluorescence result is recorded as “cell associated fluorescence” with HCC1500 cells (peptide 5 uMol/uL, 4 hrs, ER-positive luminal line) and “cell associated fluorescence” in the data set on BT474 cells [8] (peptide 5 uMol/uL, 4 hrs, Her2 line). For the same compound, the “fluorescence in the rest of the organs” value in data set [12] (setting [15]) is “no significant fluorescence”. The “uptake in the tumors (extracted organs imaged)” value in data set [12] (setting [15]) was “strong uptake”.
In the case of “LDLLDL-^64Cu (LDLLDL-{PEGn-K(CB-TE2A)}; also: 64Cu chelated by CB-TE2A)”, in [13], the “uptake of the peptide” value was “reduced uptake”. Further, the “uptake in PET image studies” value in data set [14] was “significantly high uptake”. Moreover, the “targeting specificity and sensitivity” value in the data set on tumor-expressing ANXA1 was “excellent specificity and sensitivity”.
